According to PubChem BioAssay AID212 (DTP/NCI, 2004):
“And” between values parts separate entries of the source, which are not always exact repeats. Identical values can stand only once. Records with an inconclusive call do not appear.

System: BDF1 mice, colon carcinoma 38 sc, T/C %
Assay: NCI In Vivo Anticancer Drug Screen. Data for tumor model Colon Carcinoma 38 (subcutaneous) in B6D2F1 (BDF1) mice
Details: endpoint: median tumor weight (est.), higher = larger tumour
Experimental: The antitumor activity of compounds was measured in mice bearing transplantable tumors. Survival or tumor size were measured and the results are expressed as the measurement made in the treated group (T) divided by the measurement made in the vehicle treated control group (C). The tumor model used in this assay is Colon Carcinoma 38 (subcutaneous) in B6D2F1 (BDF1) mice

[1] = dose: 25.0 mg/kg/injection, schedule: Q07DX002 (ip), vehicle: saline
[2] = dose: 50.0 mg/kg/injection, schedule: Q07DX002 (ip), vehicle: saline
[3] = dose: 3.12 mg/kg/injection, schedule: Q07DX002 (ip), vehicle: Klucel (hydroxypropylcellulose) (HPC)
[4] = dose: 12.5 mg/kg/injection, schedule: Q07DX002 (ip), vehicle: Klucel (hydroxypropylcellulose) (HPC)
[5] = dose: 25.0 mg/kg/injection, schedule: Q07DX002 (ip), vehicle: Klucel (hydroxypropylcellulose) (HPC)

With `CC(=O)C(O)N1C(=O)C=CC1=O` (stereo not given) the T/C (dose: 0.62 mg/kg/injection, schedule: Q07DX003 (ip), vehicle: saline) was 109 % of control, the T/C (dose: 1.25 mg/kg/injection, schedule: Q07DX003 (ip), vehicle: saline) was 76 % of control and the T/C (dose: 2.5 mg/kg/injection, schedule: Q07DX003 (ip), vehicle: saline) was 111 % of control. The T/C (dose: 5.0 mg/kg/injection, schedule: Q07DX003 (ip), vehicle: saline) was 108 % of control.
With `COc1cc(O)c2c(O)c3c(c4c2c1[C@]1(C4)C(C)=CCCC1(C)C)[C@H](O)[C@@]1(O)CC(=O)C(C(N)=O)=C(O)[C@@]1(O)C3=O` the T/C (dose: 6.25 mg/kg/injection, schedule: Q07DX002 (ip), vehicle: saline with Tween-80) was 92 % of control and 97 % of control and the T/C (dose: 25.0 mg/kg/injection, schedule: Q07DX002 (ip), vehicle: saline with Tween-80) was 87 % of control and 101 % of control.
For `C[CH2][Ge]1([CH2]C)[CH2]CC2(CCN(CCCN(C)C)C2)C[CH2]1`, the T/C (dose: 6.25 mg/kg/injection, schedule: Q07DX002 (ip), vehicle: saline) was 97 % of control, the T/C [1] was 105 % of control and the T/C [2] was 110 % of control.
`O=NN(CCCl)C(=O)NC1CCC(=O)NC1=O` (stereo not given) was tested, and the T/C (dose: 2.0 mg/kg/injection, schedule: Q07DX003 (ip), vehicle: saline with Tween-80) was 82 % of control, the T/C (dose: 4.0 mg/kg/injection, schedule: Q07DX003 (ip), vehicle: saline with Tween-80) was 93 % of control and the T/C (dose: 8.0 mg/kg/injection, schedule: Q07DX003 (ip), vehicle: saline with Tween-80) was 76 % of control. For the same molecule, the T/C (dose: 13.0 mg/kg/injection, schedule: Q07DX003 (ip), vehicle: saline with Tween-80) was 57 % of control and the T/C (dose: 20.0 mg/kg/injection, schedule: Q07DX003 (ip), vehicle: saline with Tween-80) was 12 % of control.
For `CC(C)[C@]12O[C@H]1[C@@H]1O[C@]13[C@]1(O[C@H]1C[C@H]1C4=C(C(=O)OC4)[C@@H](O)C[C@@]13C)[C@@H]2O`, the T/C (dose: 25.0 micrograms/kg/injection, schedule: Q07DX002 (ip), vehicle: saline + alcohol) was 113 % of control, the T/C (dose: 100.0 micrograms/kg/injection, schedule: Q07DX002 (ip), vehicle: saline + alcohol) was 113 % of control and the T/C (dose: 200.0 micrograms/kg/injection, schedule: Q07DX002 (ip), vehicle: saline + alcohol) was 109 % of control. The T/C (dose: 400.0 micrograms/kg/injection, schedule: Q07DX002 (ip), vehicle: saline + alcohol) was 63 % of control.
In the case of `C=C1C(C)C2C(Cc3ccccc3)NC(=O)C23C(OC(C)=O)/C=C/C(C)(O)CC(C)C/C=C/C3C1O` (stereo not given), the T/C (dose: 0.75 mg/kg/injection, schedule: Q07DX002 (ip), vehicle: Klucel (hydroxypropylcellulose) (HPC)) is reported as 86 % of control, the T/C (dose: 1.5 mg/kg/injection, schedule: Q07DX002 (ip), vehicle: Klucel (hydroxypropylcellulose) (HPC)) is reported as 115 % of control and the T/C (dose: 3.0 mg/kg/injection, schedule: Q07DX002 (ip), vehicle: Klucel (hydroxypropylcellulose) (HPC)) is reported as 77 % of control. The T/C (dose: 6.0 mg/kg/injection, schedule: Q07DX002 (ip), vehicle: Klucel (hydroxypropylcellulose) (HPC)) was 100 % of control, the T/C (dose: 12.0 mg/kg/injection, schedule: Q07DX002 (ip), vehicle: Klucel (hydroxypropylcellulose) (HPC)) was 95 % of control and the T/C (dose: 24.0 mg/kg/injection, schedule: Q07DX002 (ip), vehicle: Klucel (hydroxypropylcellulose) (HPC)) was 90 % of control.
For `CN(C)c1ccc2c(N(C)C)cc(N(C)C)nc2c1`, the T/C [3] was 77 % of control and 101 % of control, the T/C [4] was 114 % of control and 107 % of control and the T/C [5] was 72 % of control.
`CN1CCN(c2ccc3nc(-c4ccc5nc(-c6ccc(O)cc6)[nH]c5c4)[nH]c3c2)CC1` was tested, and the T/C [1] was 119 % of control, the T/C [2] was 116 % of control and the T/C (dose: 100.0 mg/kg/injection, schedule: Q07DX002 (ip), vehicle: saline) was 70 % of control. For the same molecule, the T/C (dose: 200.0 mg/kg/injection, schedule: Q07DX002 (ip), vehicle: saline) was 97 % of control.
`Cn1c(=O)c2ncnnc2n(C)c1=O` was tested, and the T/C [3] was 75 % of control, the T/C (dose: 6.25 mg/kg/injection, schedule: Q07DX002 (ip), vehicle: Klucel (hydroxypropylcellulose) (HPC)) was 84 % of control and the T/C [4] was 78 % of control. For the same molecule, the T/C [5] was 62 % of control.
